Experiments:
15-PGDH protein = test: Western blot of 15-PGDH protein levels in treated cell lines; assay type: cell-based; conditions: […] compound for 48 hours
A549 cells = test: PGE2 levels in medium of IL1-beta stimulated A549 cells; assay type: cell-based
[1] = 21 day toxicity study in FVB mice (daily weights); assay type: in vivo, mouse; conditions: 5 mg/kg IP twice daily for 21 days
bone marrow = test: Competitive bone marrow transplant chimerism (CD45.2 donor treated); assay type: in vivo, mouse; conditions: donor 5 mg/kg IP daily for 3 doses; weeks 12 and 16
Description: On day 3 mice were sacrificed, marrow flushed and mixed at a 1:1 ratio with vehicle treated CD45.1 marrow. 2 million whole BM cells were injected into the tail vein of lethally irradiated CD45.1 mice and percent chimerism measured via flow cytometry at weeks 8, 12, 16.

[2] = Survival of 11Gy irradiated C57BL/6J mice receiving bone marrow allograft; assay type: in vivo, mouse; conditions: 5 mg/kg IP bid
Excerpt: The experimental design is depicted in FIG. 50.
Under the conditions of the mouse colony during this study, control mice receiving 100,000-500,000 cells are all dead between days 4-13 of study. […] Such activity would be of particular utility in settings, such as transplantation with umbilical cord stem cells, in which donor cell numbers are limited.

[3] = Survival of mice after whole body irradiation; assay type: in vivo, mouse

For `CCCC[S+]([O-])c1sc2nc(-c3cccs3)cc(-c3ccccc3)c2c1N` (centres unmarked) [SW033291, 2-(butylsulfinyl)-4-phenyl-6-(thiophen-2-yl)thieno[2,3-b]pyridin-3-amine], the “levels of 15-PGDH protein (western blot)” value (15-PGDH protein) was “increase levels of 15-PGDH protein”, the “rank of PGE2 level in medium” value (A549 cells; 100 nM concentration of drug) was “next highest level of PGE2” and the “PGE2 level in medium, reflecting 15-PGDH activity” value (A549 cells; IL1-beta 23 hours, compound added for last 5 hours) was “clear inhibition of 15-PGDH activity”. The “highest PGE2 level achieved in medium” value (A549 cells; IL-1β 16 h, compound 8 h) was 3000 pg/mL, the “mouse weight during treatment” value [1] was “no evidence for SW033291 reducing mouse weight” and the “percent blood chimerism of CD45.2 marked cells” value (bone marrow) was “significantly increased”. The “number of surviving mice” value ([2]; 1 × 10^5 donor cells, Day 0) was 3, the “number of surviving mice” value ([2]; 1 × 10^5 donor cells, Day 1) was 3 and the “number of surviving mice” value ([2]; 1 × 10^5 donor cells, Day 2) was 3. The “number of surviving mice” value ([2]; 1 × 10^5 donor cells, Day 3) was 3, the “number of surviving mice” value ([2]; 1 × 10^5 donor cells, Day 4) was 2 and the “number of surviving mice” value ([2]; 1 × 10^5 donor cells, Day 5) was 1. For the same compound, the “number of surviving mice” value ([2]; 1 × 10^5 donor cells, Day 6) was 0, the “number of surviving mice” value ([2]; 2 × 10^5 donor cells, Day 0) was 3 and the “number of surviving mice” value ([2]; 2 × 10^5 donor cells, Day 1) was 3. The “number of surviving mice” value ([2]; 2 × 10^5 donor cells, Day 2) was 3, the “number of surviving mice” value ([2]; 2 × 10^5 donor cells, Day 3) was 3 and the “number of surviving mice” value ([2]; 2 × 10^5 donor cells, Day 4) was 3. The “number of surviving mice” value ([2]; 2 × 10^5 donor cells, Day 5) was 3, the “number of surviving mice” value ([2]; 2 × 10^5 donor cells, Day 6) was 2 and the “number of surviving mice” value ([2]; 2 × 10^5 donor cells, Day 7) was 2. For the same compound, the “number of surviving mice” value ([2]; 2 × 10^5 donor cells, Day 8) was 2, the “number of surviving mice” value ([2]; 2 × 10^5 donor cells, Day 9) was 2 and the “number of surviving mice” value ([2]; 2 × 10^5 donor cells, Day 10) was 2. The “number of surviving mice” value ([2]; 2 × 10^5 donor cells, Day 11) was 2, the “number of surviving mice” value ([2]; 2 × 10^5 donor cells, Day 12) was 1 and the “number of surviving mice” value ([2]; 2 × 10^5 donor cells, Day 13) was 0. For the same compound, the “number of surviving mice” value ([2]; 5 × 10^5 donor cells, Day 0) was 3, the “number of surviving mice” value ([2]; 5 × 10^5 donor cells, Day 1) was 3 and the “number of surviving mice” value ([2]; 5 × 10^5 donor cells, Day 2) was 3. The “number of surviving mice” value ([2]; 5 × 10^5 donor cells, Day 3) was 3, the “number of surviving mice” value ([2]; 5 × 10^5 donor cells, Day 4) was 3 and the “number of surviving mice” value ([2]; 5 × 10^5 donor cells, Day 5) was 3. For the same compound, the “number of surviving mice” value ([2]; 5 × 10^5 donor cells, Day 6) was 3, the “number of surviving mice” value ([2]; 5 × 10^5 donor cells, Day 7) was 3 and the “number of surviving mice” value ([2]; 5 × 10^5 donor cells, Day 8) was 2. For the same compound, the “number of surviving mice” value ([2]; 5 × 10^5 donor cells, Day 9) was 2, the “number of surviving mice” value ([2]; 5 × 10^5 donor cells, Day 10) was 2 and the “number of surviving mice” value ([2]; 5 × 10^5 donor cells, Day 11) was 2. For the same compound, the “number of surviving mice” value ([2]; 5 × 10^5 donor cells, Day 12) was 2, the “number of surviving mice” value ([2]; 5 × 10^5 donor cells, Day 13) was 2 and the “number of surviving mice” value ([2]; 5 × 10^5 donor cells, Day 19) was 2. The “number of mice surviving” value ([3]; 7 Gy, 5 mg/kg IP daily for 7 doses, Day 0) was 3, the “number of mice surviving” value ([3]; 7 Gy, 5 mg/kg IP daily for 7 doses, Day 6) was 3 and the “number of mice surviving” value ([3]; 7 Gy, 5 mg/kg IP daily for 7 doses, Day 7) was 3. For the same compound, the “number of mice surviving” value ([3]; 7 Gy, 5 mg/kg IP daily for 7 doses, Day 8) was 3, the “number of mice surviving” value ([3]; 7 Gy, 5 mg/kg IP daily for 7 doses, Day 9) was 3 and the “number of mice surviving” value ([3]; 7 Gy, 5 mg/kg IP daily for 7 doses, Day 10) was 3. The “number of mice surviving” value ([3]; 7 Gy, 5 mg/kg IP daily for 7 doses, Day 11) was 3, the “number of mice surviving” value ([3]; 7 Gy, 5 mg/kg IP daily for 7 doses, Day 12) was 3 and the “number of mice surviving” value ([3]; 7 Gy, 5 mg/kg IP daily for 7 doses, Day 13) was 3. The “number of mice surviving” value ([3]; 7 Gy, 5 mg/kg IP daily for 7 doses, Day 14) was 3, the “number of mice surviving” value ([3]; 7 Gy, 5 mg/kg IP daily for 7 doses, Day 15) was 3 and the appearance of mice ([3]; 7 Gy, 5 mg/kg IP daily for 7 doses, Day 25 (cell reads Looks Healthy)) was “Healthy”. For the same compound, the “number of mice surviving” value ([3]; 9 Gy, 5 mg/kg IP daily for 7 doses, Day 0) was 3, the “number of mice surviving” value ([3]; 9 Gy, 5 mg/kg IP daily for 7 doses, Day 6) was 3 and the “number of mice surviving” value ([3]; 9 Gy, 5 mg/kg IP daily for 7 doses, Day 7) was 3. For the same compound, the “number of mice surviving” value ([3]; 9 Gy, 5 mg/kg IP daily for 7 doses, Day 8) was 3, the “number of mice surviving” value ([3]; 9 Gy, 5 mg/kg IP daily for 7 doses, Day 9) was 3 and the “number of mice surviving” value ([3]; 9 Gy, 5 mg/kg IP daily for 7 doses, Day 10) was 3. The “number of mice surviving” value ([3]; 9 Gy, 5 mg/kg IP daily for 7 doses, Day 11) was 3, the “number of mice surviving” value ([3]; 9 Gy, 5 mg/kg IP daily for 7 doses, Day 12) was 2 and the “number of mice surviving” value ([3]; 9 Gy, 5 mg/kg IP daily for 7 doses, Day 13) was 2. The “number of mice surviving” value ([3]; 9 Gy, 5 mg/kg IP daily for 7 doses, Day 14) was 1, the “number of mice surviving” value ([3]; 9 Gy, 5 mg/kg IP daily for 7 doses, Day 15) was 0 and the “number of mice surviving” value ([3]; 11 Gy, 5 mg/kg IP 1 dose/daily for 7 days (Table 7), Day 0) was 3. The “number of mice surviving” value ([3]; 11 Gy, 5 mg/kg IP 1 dose/daily for 7 days (Table 7), Day 5) was 3 and the “number of mice surviving” value ([3]; 11 Gy, 5 mg/kg IP 1 dose/daily for 7 days (Table 7), Day 6) was 3.
